Data published in patent publication US10689354B2, “Aminoazole derivative” (Teijin Pharma Limited, priority 2015, dated 2020).

Assays:
[1] = molecular target: T1, androgen receptor (AR-LBD) (Rattus norvegicus, UniProt P15207); test: Evaluation of androgen receptor affinity (PolarScreen Androgen Receptor Competitor Assay Kit, Red; fluorescence polarization); details: 22° C. for 5 hours, relative to binding rate of 1 μM DHT, read-out: AR affinity (pEC50) (converted)
T1 construct: 5 μL of 2×AR-LBD/Fluoromone AL Red Complex contained in the kit; purchased Invitrogen
T1 sequence (P15207 651-882 limits assumed): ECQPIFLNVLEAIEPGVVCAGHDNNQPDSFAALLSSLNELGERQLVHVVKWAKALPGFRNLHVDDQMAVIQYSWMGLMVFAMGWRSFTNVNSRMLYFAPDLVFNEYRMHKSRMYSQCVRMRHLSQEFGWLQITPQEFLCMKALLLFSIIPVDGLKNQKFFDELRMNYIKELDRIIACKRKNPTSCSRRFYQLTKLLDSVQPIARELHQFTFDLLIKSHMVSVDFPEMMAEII
Method in brief: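 Fluorescence polarization read-out after 5 h at 22° C of compound with a red-fluorophore-labelled AR-LBD complex. Displacement is scaled against 1 μM DHT, and the log reciprocal of the concentration reaching half that effect gives pEC50 via four-parameter curve fitting.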

human androgen receptor = molecular target: T2, human androgen receptor (Homo sapiens, UniProt P10275); test: Reporter assay of an androgen receptor responsive sequence (luciferase, transiently transfected HEK293 cells); format: cell-based; details: 24 hours incubation, relative to activity of 100 nM DHT, read-out: AR transcriptive activity (pEC50) (converted)
T2 construct: expressed in transfected cells; host or cells: HEK293
T2 sequence (P10275 1-920): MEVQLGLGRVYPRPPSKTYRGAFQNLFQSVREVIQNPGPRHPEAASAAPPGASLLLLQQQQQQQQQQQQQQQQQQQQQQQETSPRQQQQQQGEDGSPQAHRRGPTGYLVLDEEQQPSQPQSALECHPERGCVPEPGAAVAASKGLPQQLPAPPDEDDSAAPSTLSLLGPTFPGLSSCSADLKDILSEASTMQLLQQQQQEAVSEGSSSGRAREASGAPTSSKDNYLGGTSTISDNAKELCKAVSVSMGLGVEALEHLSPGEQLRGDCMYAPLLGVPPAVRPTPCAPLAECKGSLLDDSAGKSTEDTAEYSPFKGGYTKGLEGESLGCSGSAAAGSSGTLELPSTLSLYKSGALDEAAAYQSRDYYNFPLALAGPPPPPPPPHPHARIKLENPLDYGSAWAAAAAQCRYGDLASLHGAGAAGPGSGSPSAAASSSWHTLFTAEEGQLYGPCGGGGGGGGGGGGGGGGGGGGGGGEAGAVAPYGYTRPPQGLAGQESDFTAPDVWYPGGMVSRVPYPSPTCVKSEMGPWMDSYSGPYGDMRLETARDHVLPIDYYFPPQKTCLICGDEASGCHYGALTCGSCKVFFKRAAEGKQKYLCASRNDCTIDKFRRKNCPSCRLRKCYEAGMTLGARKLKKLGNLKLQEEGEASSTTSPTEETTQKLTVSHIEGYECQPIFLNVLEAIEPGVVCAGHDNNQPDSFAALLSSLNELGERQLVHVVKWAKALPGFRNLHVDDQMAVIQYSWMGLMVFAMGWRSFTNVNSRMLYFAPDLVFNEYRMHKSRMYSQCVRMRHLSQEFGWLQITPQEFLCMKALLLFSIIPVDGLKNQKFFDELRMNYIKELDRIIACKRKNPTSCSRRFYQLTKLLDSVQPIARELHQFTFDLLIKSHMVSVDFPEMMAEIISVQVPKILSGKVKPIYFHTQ
Method in brief: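 HEK293 cells transiently transfected for 3 h with ARE-firefly luciferase, full-length human AR and TK-Renilla plasmids, then exposed to compound for 24 h at 37 °C in 5% charcoal-treated FBS/DMEM. Dual-Glo luminescence read; pEC50 from 4-parameter fit relative to 100 nM DHT.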

Compound | EC50 [1] [µM] | EC50 (human androgen receptor) [µM]
Cc1sc(N(Cc2nc(C3CC3)no2)c2ccc(C#N)cc2)nc1C(=O)NS(C)(=O)=O [Example 196, 2-[4-cyano-N-[(3-cyclopropyl-1,2,4-oxadiazol-5-yl)methyl]anilino]-5-methyl-N-methylsulfonyl-thiazole-4-carboxamide] | 0.631 | 1.58
COCCCS(=O)(=O)NC(=O)c1nc(N(Cc2nc(C3CC3)no2)c2ccc(C#N)cc2)sc1C [Example 197, 2-[4-cyano-N-[(3-cyclopropyl-1,2,4-oxadiazol-5-yl)methyl]anilino]-N-(3-methoxypropylsulfonyl)-5-methyl-thiazole-4-carboxamide] | 1.26 | 3.98
Cc1sc(N(Cc2ccc(OC(F)(F)F)cc2)c2ccc(C#N)cc2)nc1C(=O)NS(=O)(=O)CS(C)(=O)=O [Example 198, 2-[4-cyano-N-[[4-(trifluoromethoxy)phenyl]methyl]anilino]-5-methyl-N-(methylsulfonylmethylsulfonyl)thiazole-4-carboxamide] | 0.0398 | > 10
Cc1sc(N(Cc2cccc(N)c2)c2ccc(C#N)cc2)nc1C(=O)NS(C)(=O)=O [Example 203, 2-[N-[(3-aminophenyl)methyl]-4-cyano-anilino]-5-methyl-N-methylsulfonyl-thiazole-4-carboxamide] | 0.316 | 0.631
Cc1sc(N(Cc2cccc(N(C)C)c2)c2ccc(C#N)cc2)nc1C(=O)NS(C)(=O)=O [Example 215, 2-[4-cyano-N-[[3-(dimethylamino)phenyl]methyl]anilino]-5-methyl-N-methylsulfonyl-thiazole-4-carboxamide] | 0.0501 | 0.2
Cc1oc(N(CCc2ccc(Cl)cc2)Cc2ccccc2)nc1C(=O)NS(C)(=O)=O [Example 220, 2-[benzyl-[2-(4-chlorophenyl)ethyl]amino]-5-methyl-N-methylsulfonyl-oxazole-4-carboxamide] | 0.0398 | 0.316
Cc1sc(N(Cc2ccccc2)c2ccc(C#N)c(F)c2)nc1C(=O)NS(C)(=O)=O [Example 222, 2-(N-benzyl-4-cyano-3-fluoro-anilino)-5-methyl-N-methylsulfonyl-thiazole-4-carboxamide] | 0.2 | 0.251
Cc1sc(N(Cc2ccccc2)c2ccc(C(F)(F)F)nc2)nc1C(=O)NS(C)(=O)=O [Example 223, 2-[benzyl-[6-(trifluoromethyl)-3-pyridyl]amino]-5-methyl-N-methylsulfonyl-thiazole-4-carboxamide] | 0.398 | 0.631
CS(=O)(=O)NC(=O)c1nc(N(Cc2ccccc2)c2ccc(C#N)cc2)sc1C(F)(F)F [Example 230, 2-(N-benzyl-4-cyano-anilino)-N-methylsulfonyl-5-(trifluoromethyl)thiazole-4-carboxamide] | 0.126 | 1.26
Cc1sc(N(Cc2ccccc2)c2ccc3ccccc3c2)nc1C(=O)NS(C)(=O)=O [Example 232, 2-[benzyl(2-naphthyl)amino]-5-methyl-N-methylsulfonyl-thiazole-4-carboxamide] | 0.2 | > 10

Other lines, results leading:

EC50 [1] [µM] | EC50 (human androgen receptor) [µM] | Compound
0.158 | 0.126 | COCCCS(=O)(=O)NC(=O)c1nc(N(Cc2ccc3ncsc3c2)c2ccc(C#N)cc2)sc1C [Example 195, 2-[N-(1,3-benzothiazol-6-ylmethyl)-4-cyano-anilino]-N-(3-methoxypropylsulfonyl)-5-methyl-thiazole-4-carboxamide]
0.0398 | 1 | Cc1sc(N(Cc2ccc(OC(F)(F)F)cc2)c2ccc(C#N)cc2)nc1C(=O)NS(=O)(=O)CCCC#N [Example 199, N-(3-cyanopropylsulfonyl)-2-[4-cyano-N-[[4-(trifluoromethoxy)phenyl]methyl]anilino]-5-methyl-thiazole-4-carboxamide]
0.0251 | 0.316 | Cc1sc(N(Cc2ccc(OC(F)(F)F)cc2)c2ccc(C#N)cc2)nc1C(=O)NS(=O)(=O)CCCO [Example 200, 2-[4-cyano-N-[[4-(trifluoromethoxy)phenyl]methyl]anilino]-N-(3-hydroxypropylsulfonyl)-5-methyl-thiazole-4-carboxamide]
0.0398 | 0.0398 | Cc1sc(N(Cc2ccc(OC(F)(F)F)cc2)c2ccc(C#N)cc2)nc1C(=O)NS(=O)(=O)CCCCO [Example 201, 2-[4-cyano-N-[[4-(trifluoromethoxy)phenyl]methyl]anilino]-N-(4-hydroxybutylsulfonyl)-5-methyl-thiazole-4-carboxamide]
0.0316 | 0.126 | Cc1sc(N(Cc2ccc(OC(F)(F)F)cc2)c2ccc(C#N)cc2)nc1C(=O)NS(=O)(=O)CC1CCOC1 (stereo not shown) [Example 202, 2-[4-cyano-N-[[4-(trifluoromethoxy)phenyl]methyl]anilino]-5-methyl-N-(tetrahydrofuran-3-ylmethylsulfonyl)thiazole-4-carboxamide]
0.0631 | 1.26 | Cc1sc(N(Cc2cccc(N3CCCC3)c2)c2ccc(C#N)cc2)nc1C(=O)NS(C)(=O)=O [Example 216, 2-[4-cyano-N-[(3-pyrrolidin-1-ylphenyl)methyl]anilino]-5-methyl-N-methylsulfonyl-thiazole-4-carboxamide]
0.0501 | 3.16 | Cc1sc(N(Cc2cccc(N3CCCCC3)c2)c2ccc(C#N)cc2)nc1C(=O)NS(C)(=O)=O [Example 217, 2-[4-cyano-N-[[3-(1-piperidyl)phenyl]methyl]anilino]-5-methyl-N-methylsulfonyl-thiazole-4-carboxamide]
0.251 | > 10 | Cc1sc(N(Cc2cccc(-n3ccnc3)c2)c2ccc(C#N)cc2)nc1C(=O)NS(C)(=O)=O [Example 218, 2-[4-cyano-N-[(3-imidazol-1-ylphenyl)methyl]anilino]-5-methyl-N-methylsulfonyl-thiazole-4-carboxamide]
0.0631 | 1.58 | Cc1sc(N(Cc2cccc(-n3cccn3)c2)c2ccc(C#N)cc2)nc1C(=O)NS(C)(=O)=O [Example 219, 2-[4-cyano-N-[(3-pyrazol-1-ylphenyl)methyl]anilino]-5-methyl-N-methylsulfonyl-thiazole-4-carboxamide]
0.0398 | 0.0501 | CS(=O)(=O)NC(=O)c1nc(N(Cc2ccc3occc3c2)c2ccc(C#N)cc2)sc1Br [Example 221, 2-[N-(benzofuran-5-ylmethyl)-4-cyano-anilino]-5-bromo-N-methylsulfonyl-thiazole-4-carboxamide]
0.0794 | 0.2 | CS(=O)(=O)NC(=O)c1nc(N(Cc2ccccc2Cl)c2ccc(C#N)cc2)sc1Br [Example 240, 5-bromo-2-[N-[(2-chlorophenyl)methyl]-4-cyano-anilino]-N-methylsulfonyl-thiazole-4-carboxamide]
0.316 | 1 | Cc1sc(N(Cc2ccccc2)c2ccc(S(F)(F)(F)(F)F)cc2)nc1C(=O)NS(C)(=O)=O [Example 241, 2-[N-benzyl-4-(pentafluorosulfanyl)anilino]-5-methyl-N-methylsulfonyl-thiazole-4-carboxamide]
0.0631 | 0.1 | CS(=O)(=O)NC(=O)c1nc(N(Cc2ccccc2F)c2ccc(C#N)cc2)sc1Br [Example 242, 5-bromo-2-[4-cyano-N-[(2-fluorophenyl)methyl]anilino]-N-methylsulfonyl-thiazole-4-carboxamide]
